Reference: ChEMBL document CHEMBL6182857, “Targeting biofilm formation in Candida albicans with halogenated pyrrolopyrimidine derivatives” (Eur J Med Chem, 2025)
The source made the active and inactive calls. The calls are words filed in the database; no cut-off is given here.

Legend:
Candida albicans [1] = assay: Antibiofilm activity against fluconazole-resistant Candida albicans DAY185 assessed as inhibition of biofilm formation at 50 ug/ml measured after 24 hrs by crystal violet staining based analysis relative to control; type: functional
Candida albicans [2] = assay: Antibiofilm activity against fluconazole-resistant Candida albicans DAY185 assessed as inhibition of biofilm formation at 5 ug/ml measured after 24 hrs by crystal violet staining based analysis; type: functional, organism-based; details: dose 5.0 µg/ml
Candida albicans [3] = assay: Antibiofilm activity against fluconazole-resistant Candida albicans DAY185 assessed as inhibition of biofilm formation at 7 ug/ml measured after 24 hrs by crystal violet staining based analysis relative to control; type: functional
Candida albicans [4] = assay: Antibiofilm activity against fluconazole-resistant Candida albicans DAY185 assessed as inhibition of biofilm formation at 10 to 20 ug/ml measured after 24 hrs by 2D/3D imaging analysis relative to control; type: functional; details: dose 10-20 µg/ml
Candida albicans [5] = assay: Antibiofilm activity against fluconazole-resistant Candida albicans DAY185 assessed as inhibition of biofilm formation at 5 ug/ml measured after 24 hrs by 2D/3D imaging analysis; type: functional, organism-based; details: dose 5.0 µg/ml
Candida albicans [6] = assay: Inhibition of yeast to hypha transition in fluconazole-resistant Candida albicans DAY185 assessed as decrease in cell aggregation at 5 to 20 ug/ml measured after 24 hrs by SEM analysis; type: functional, organism-based; details: dose 5-20 µg/ml
Candida albicans [7] = assay: Inhibition of yeast to hypha transition in fluconazole-resistant Candida albicans DAY185 assessed as decrease in germ tube formation at 5 to 20 ug/ml measured after 24 hrs by SEM analysis; type: functional, organism-based; details: dose 5-20 µg/ml
Candida albicans [8] = assay: Inhibition of yeast to hypha transition in fluconazole-resistant Candida albicans DAY185 assessed as decrease in filamentous growth at 5 to 20 ug/ml measured after 24 hrs by SEM analysis; type: functional, organism-based; details: dose 5-20 µg/ml
Candida albicans [9] = assay: Inhibition of yeast to hypha transition in fluconazole-resistant Candida albicans DAY185 assessed as decrease in hyphal development at >=10 ug/ml measured after 24 hrs by SEM analysis relative to control; type: functional; details: dose >= 10 µg/ml
Candida albicans [10] = assay: Inhibition of yeast to hypha transition in fluconazole-resistant Candida albicans DAY185 assessed as decrease in hyphal growth at 5 to 20 ug/ml measured after 24 hrs by SEM analysis; type: functional, organism-based; details: dose 5-20 µg/ml
Candida albicans [11] = assay: Inhibition of yeast to hypha transition in fluconazole-resistant Candida albicans DAY185 assessed as decrease in hyphal adhesion at 5 to 20 ug/ml measured after 24 hrs by SEM analysis; type: functional, organism-based; details: dose 5-20 µg/ml
Candida albicans [12] = assay: Downregulation of ALS3 mRNA level in fluconazole-resistant Candida albicans DAY185 assessed as fold decrease at 50 ug/ml incubated for 6 hrs by qRT-PCR analysis relative to control; type: functional; details: dose 50.0 µg/ml
Candida albicans [13] = assay: Downregulation of HWP1 mRNA level in fluconazole-resistant Candida albicans DAY185 assessed as fold decrease at 50 ug/ml incubated for 6 hrs by qRT-PCR analysis relative to control; type: functional; details: dose 50.0 µg/ml
Candida albicans [14] = assay: Upregulation of YWP1 mRNA level in fluconazole-resistant Candida albicans DAY185 assessed as fold increase at 50 ug/ml incubated for 6 hrs by qRT-PCR analysis relative to control; type: functional; details: dose 50.0 µg/ml
Candida albicans [15] = assay: Downregulation of ECE1 mRNA level in fluconazole-resistant Candida albicans DAY185 assessed as fold decrease at 50 ug/ml incubated for 6 hrs by qRT-PCR analysis relative to control; type: functional; details: dose 50.0 µg/ml
Candida albicans [16] = assay: Upregulation of CDR11 mRNA level in fluconazole-resistant Candida albicans DAY185 assessed as fold increase at 50 ug/ml incubated for 6 hrs by qRT-PCR analysis relative to control; type: functional; details: dose 50.0 µg/ml
Candida albicans [17] = assay: Upregulation of GST3 mRNA level in fluconazole-resistant Candida albicans DAY185 assessed as fold increase at 50 ug/ml incubated for 6 hrs by qRT-PCR analysis relative to control; type: functional; details: dose 50.0 µg/ml
Candida albicans [18] = assay: Upregulation of IFD6 mRNA level in fluconazole-resistant Candida albicans DAY185 assessed as fold increase at 50 ug/ml incubated for 6 hrs by qRT-PCR analysis relative to control; type: functional; details: dose 50.0 µg/ml
Candida albicans [19] = assay: Upregulation of UCF1 mRNA level in fluconazole-resistant Candida albicans DAY185 assessed as fold increase at 50 ug/ml incubated for 6 hrs by qRT-PCR analysis relative to control; type: functional; details: dose 50.0 µg/ml
Candida albicans [20] = assay: Upregulation of ZAP1 mRNA level in fluconazole-resistant Candida albicans DAY185 assessed as fold increase at 50 ug/ml incubated for 6 hrs by qRT-PCR analysis relative to control; type: functional; details: dose 50.0 µg/ml
Candida albicans [21] = assay: Effect on UME6 mRNA level in fluconazole-resistant Candida albicans DAY185 at 50 ug/ml incubated for 6 hrs by qRT-PCR analysis; type: functional; details: dose 50.0 µg/ml
Brassica rapa = assay: Toxicity in Brassica rapa assessed as seed germination rate at 10 to 100 ug/ml treated for 4 days relative to control; type: organism-based; details: in vivo, 96 h, at 10 to 100 µg/mL, dose 10-100 µg/ml, time 4 day
[22] = Toxicity in Caenorhabditis elegans assessed as nematode survival at higher concentrations treated for 10 days; details: 240 h, time 10 day
Candida albicans [23] = assay: Antibiofilm activity against fluconazole-resistant Candida albicans DAY185 assessed as inhibition of biofilm formation on bio-compatible PLGA surface coated with compound at 5 to 10 ug/ml incubated for 24 hrs by CLSM analysis; type: functional, organism-based; details: dose 5-10 µg/ml
Candida albicans [24] = assay: Antibiofilm activity against fluconazole-resistant Candida albicans DAY185 assessed as reduction in biofilm thickness on bio-compatible PLGA surface coated with compound at 5 to 10 ug/ml incubated for 24 hrs by CLSM analysis; type: functional, organism-based; details: dose 5-10 µg/ml
Candida albicans [25] = assay: Antibiofilm activity against fluconazole-resistant Candida albicans DAY185 assessed as reduction in overall biofilm mass on bio-compatible PLGA surface coated with compound at 5 to 10 ug/ml incubated for 24 hrs by CLSM analysis; type: functional, organism-based; details: dose 5-10 µg/ml
Candida albicans [26] = assay: Antibiofilm activity against fluconazole-resistant Candida albicans DAY185 assessed as reduction in biofilm mass on bio-compatible PLGA surface coated with compound incubated for 24 hrs by COMSTAT analysis; type: functional, organism-based
Candida albicans [27] = assay: Antibiofilm activity against fluconazole-resistant Candida albicans DAY185 assessed as reduction in mean biofilm thickness on bio-compatible PLGA surface coated with compound incubated for 24 hrs by COMSTAT analysis; type: functional, organism-based
Candida albicans [28] = assay: Antibiofilm activity against fluconazole-resistant Candida albicans DAY185 assessed as reduction in substratum coverage on bio-compatible PLGA surface coated with compound at 5 ug/ml incubated for 24 hrs by COMSTAT analysis; type: functional, organism-based; details: dose 5.0 µg/ml
Candida albicans [29] = assay: Additive antibiofilm activity against fluconazole-resistant Candida albicans DAY185 assessed as inhibition of biofilm formation at 5 ug/ml measured after 24 hrs in presence of AMB by crystal violet staining based analysis relative to control; type: functional, organism-based; details: dose 5.0 µg/ml
Candida albicans [30] = assay: Antibiofilm activity against Candida albicans ATCC 10231 assessed as inhibition of biofilm formation by crystal violet staining based analysis; type: functional, organism-based
Candida albicans [31] = assay: Additive antibiofilm activity against fluconazole-resistant Candida albicans DAY185 assessed as inhibition of biofilm formation at 5 ug/ml measured after 24 hrs in presence of BTZ by crystal violet staining based analysis relative to control; type: functional, organism-based; details: dose 5.0 µg/ml
Candida albicans [32] = assay: Antibiofilm activity against Candida albicans KCCM 12552 assessed as inhibition of biofilm formation by crystal violet staining based analysis; type: functional, organism-based
[Candida] auris [33] = Antibiofilm activity against Candida auris KCTC 17809 assessed as inhibition of biofilm formation by crystal violet staining based analysis; type: functional, organism-based; details: Candidozyma auris
[Candida] auris [34] = Antibiofilm activity against Candida auris KCTC 17810 assessed as inhibition of biofilm formation by crystal violet staining based analysis; type: functional, organism-based; details: Candidozyma auris
Candida albicans [35] = assay: Antibiofilm activity against fluconazole-resistant Candida albicans DAY185 assessed as inhibition of biofilm formation at 20 ug/ml measured after 24 hrs by crystal violet staining based analysis relative to control; type: functional
Candida albicans [36] = assay: Inhibition of yeast to hypha transition in fluconazole-resistant Candida albicans DAY185 assessed as decrease in cell aggregation at 10 to 20 ug/ml measured after 24 hrs by SEM analysis; type: functional, organism-based; details: dose 10-20 µg/ml
Candida albicans [37] = assay: Inhibition of yeast to hypha transition in fluconazole-resistant Candida albicans DAY185 assessed as decrease in germ tube formation at 10 to 20 ug/ml measured after 24 hrs by SEM analysis; type: functional, organism-based; details: dose 10-20 µg/ml
Candida albicans [38] = assay: Inhibition of yeast to hypha transition in fluconazole-resistant Candida albicans DAY185 assessed as decrease in filamentous growth at 10 to 20 ug/ml measured after 24 hrs by SEM analysis; type: functional, organism-based; details: dose 10-20 µg/ml
Candida albicans [39] = assay: Downregulation of UME6 mRNA level in fluconazole-resistant Candida albicans DAY185 assessed as fold decrease at 50 ug/ml incubated for 6 hrs by qRT-PCR analysis relative to control; type: functional; details: dose 50.0 µg/ml
[40] = Toxicity in Caenorhabditis elegans assessed as nematode survival at 100 ug/ml treated for 7 days; details: 168 h, dose 100 µg/ml, time 7 day
Candida albicans [41] = assay: Antibiofilm activity against fluconazole-resistant Candida albicans DAY185 assessed as inhibition of biofilm formation on bio-compatible PLGA surface coated with compound at 10 to 20 ug/ml incubated for 24 hrs by CLSM analysis; type: functional, organism-based; details: dose 10-20 µg/ml
Candida albicans [42] = assay: Antibiofilm activity against fluconazole-resistant Candida albicans DAY185 assessed as reduction in biofilm thickness on bio-compatible PLGA surface coated with compound at 10 to 20 ug/ml incubated for 24 hrs by CLSM analysis; type: functional, organism-based; details: dose 10-20 µg/ml
Candida albicans [43] = assay: Antibiofilm activity against fluconazole-resistant Candida albicans DAY185 assessed as reduction in overall biofilm mass on bio-compatible PLGA surface coated with compound at 10 to 20 ug/ml incubated for 24 hrs by CLSM analysis; type: functional, organism-based; details: dose 10-20 µg/ml
Candida albicans [44] = assay: Antibiofilm activity against fluconazole-resistant Candida albicans DAY185 assessed as reduction in substratum coverage on bio-compatible PLGA surface coated with compound at 20 ug/ml incubated for 24 hrs by COMSTAT analysis; type: functional, organism-based; details: dose 20.0 µg/ml
Candida albicans [45] = assay: Additive antibiofilm activity against fluconazole-resistant Candida albicans DAY185 assessed as inhibition of biofilm formation at 10 ug/ml measured after 24 hrs in presence of AMB by crystal violet staining based analysis relative to control; type: functional, organism-based; details: dose 10.0 µg/ml
Candida albicans [46] = assay: Additive antibiofilm activity against fluconazole-resistant Candida albicans DAY185 assessed as inhibition of biofilm formation at 10 ug/ml measured after 24 hrs in presence of BTZ by crystal violet staining based analysis relative to control; type: functional, organism-based; details: dose 10.0 µg/ml

SMILES	inhibition at 50 µg/mL (Candida albicans [1])	inhibition (Candida albicans [10])	inhibition (Candida albicans [11])	fold change (FC) (Candida albicans [12])	fold change (FC) (Candida albicans [13])	fold change (FC) (Candida albicans [14])	fold change (FC) (Candida albicans [15])	fold change (FC) (Candida albicans [16])	Activity (Brassica rapa)	Activity (Candida albicans [26])	Activity (Candida albicans [27])	inhibition (Candida albicans [30])	inhibition (Candida albicans [32])	inhibition ([Candida] auris [33])	inhibition ([Candida] auris [34])	inhibition at 20 µg/mL (Candida albicans [35])	other results
Clc1nc(Cl)c2c(I)c[nH]c2n1	> 85%	Active	Active	8	57	55	143	138	> 90%	Dose-dependent-effect; Nearly Undetectable Levels Were Observed At 5 Ug/Ml	Dose-dependent-effect; Nearly Undetectable Levels Were Observed At 5 Ug/Ml	Dose-dependent-effect	Dose-dependent-effect	Dose-dependent-effect	Dose-dependent-effect		inhibition (Candida albicans [2]): Active; inhibition at 7 µg/mL (Candida albicans [3]): 100%; inhibition (INH) (Candida albicans [4]; at 10 to 20 µg/mL): ~100%; inhibition (Candida albicans [5]): Active; inhibition (Candida albicans [6]): Active; inhibition (Candida albicans [7]): Active; inhibition (Candida albicans [8]): Active; inhibition (INH) (Candida albicans [9]): 100%; fold change (FC) (Candida albicans [17]): 58; fold change (FC) (Candida albicans [18]): 82; fold change (FC) (Candida albicans [19]): 37; fold change (FC) (Candida albicans [20]): 10; Activity (Candida albicans [21]): No effect; Activity [22]: Toxic; inhibition (Candida albicans [23]): Active; Significant Effect Even At Lower Concentration; Activity (Candida albicans [24]): Active; More Pronounced Effects Were Observed At Higher Concentration; Activity (Candida albicans [25]): Active; More Pronounced Effects Were Observed At Higher Concentration; Activity (Candida albicans [28]): Active; inhibition (Candida albicans [29]): Active; inhibition (Candida albicans [31]): Active
Clc1ncnc2[nH]cc(I)c12	> 95%	Active	Active	145	55	14	267	13	> 90%	Dose-dependent-effect; Nearly Undetectable Levels Were Observed At 20 Ug/Ml	Dose-dependent-effect; Nearly Undetectable Levels Were Observed At 20 Ug/Ml	Dose-dependent-effect	Dose-dependent-effect	Dose-dependent-effect	Dose-dependent-effect	> 85%	inhibition (Candida albicans [4]): Active; Significant Effect Was Observed At 20 Ug/Ml; inhibition (Candida albicans [36]): Active; inhibition (Candida albicans [37]): Active; inhibition (Candida albicans [38]): Active; fold change (FC) (Candida albicans [39]): 15; Activity [40]: Toxic; inhibition (Candida albicans [41]): Active; Activity (Candida albicans [42]): Active; More Pronounced Effects Were Observed At Higher Concentration; Activity (Candida albicans [43]): Active; More Pronounced Effects Were Observed At Higher Concentration; Activity (Candida albicans [44]): Active; inhibition (Candida albicans [45]): Active; inhibition (Candida albicans [46]): Active
Clc1nc(Cl)c2c(Br)c[nH]c2n1	> 95%															> 85%	
